ChEMBL document CHEMBL1201862, “PubChem BioAssay data set” (2004)
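How tested: cells in 96-well plates exposed to compound for 48 hours at five concentrations. At the GI50, growth is halved.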 Calls of active or inactive are those of the source. Cut-off read from the data, not from the text of the source: active = GI50 up to about 1.1 µM and inactive = higher.

Legend:
Experiment in all cases: NCI-60 cell line screen, 48 h
SN12C = tested on: SN12C
HL-60 = tested on: HL-60
A498 = tested on: A498
CCRF-CEM = tested on: CCRF-CEM
NCI-H522 = tested on: NCI-H522
MDA-MB-435 = tested on: MDA-MB-435
SF-268 = tested on: SF-268
SK-MEL-28 = tested on: SK-MEL-28
IGROV-1 = tested on: IGROV-1
BT-549 = tested on: BT-549
MCF7 = tested on: MCF7
OVCAR-3 = tested on: OVCAR-3
SF-539 = tested on: SF-539
T47D = tested on: T47D
HOP-62 = tested on: HOP-62
TK-10 = tested on: TK-10
UACC-62 = tested on: UACC-62
NCI-H23 = tested on: NCI-H23
OVCAR-5 = tested on: OVCAR-5
CAKI-1 = tested on: CAKI-1
K562 = tested on: K562
SW-620 = tested on: SW-620
UO-31 = tested on: UO-31
Hs-578T = tested on: Hs-578T
HOP-92 = tested on: HOP-92
SK-OV-3 = tested on: SK-OV-3
ACHN = tested on: ACHN
HT-29 = tested on: HT-29
SNB-19 = tested on: SNB-19
NCI/ADR-RES = tested on: NCI/ADR-RES
M14 = tested on: M14
HCC 2998 = tested on: HCC 2998
HCT-15 = tested on: HCT-15
OVCAR-8 = tested on: OVCAR-8
SF-295 = tested on: SF-295
EKVX = tested on: EKVX
UACC-257 = tested on: UACC-257
MDA-MB-231 = tested on: MDA-MB-231
OVCAR-4 = tested on: OVCAR-4
PC-3 = tested on: PC-3
SK-MEL-2 = tested on: SK-MEL-2
RXF 393 = tested on: RXF 393
A549 = tested on: A549
MOLT-4 = tested on: MOLT-4
SK-MEL-5 = tested on: SK-MEL-5
COLO 205 = tested on: COLO 205
DU-145 = tested on: DU-145
U-251 = tested on: U-251
NCI-H460 = tested on: NCI-H460
KM12 = tested on: KM12
NCI-H226 = tested on: NCI-H226

NNC(=O)c1c(SCc2ccccc2)nc2c3ccccc3ccn12
GI50 (SN12C): 17 µM (inactive) | GI50 (HL-60): 9.08 µM (inactive) | GI50 (A498): 11.6 µM (inactive) | GI50 (CCRF-CEM): 2.92 µM (inactive) | GI50 (NCI-H522): 15.5 µM (inactive) | GI50 (MDA-MB-435): 17.1 µM (inactive) | GI50 (SF-268): 20.3 µM (inactive) | GI50 (SK-MEL-28): 18.1 µM (inactive) | GI50 (IGROV-1): 14.4 µM (inactive) | GI50 (BT-549): 21.4 µM (inactive) | GI50 (MCF7): 24.2 µM (inactive) | GI50 (OVCAR-3): 2.92 µM (inactive) | GI50 (SF-539): 15.9 µM (inactive) | GI50 (T47D): 18.1 µM (inactive) | GI50 (HOP-62): 10.2 µM (inactive) | GI50 (TK-10): 30.9 µM (inactive) | GI50 (UACC-62): 10.2 µM (inactive) | GI50 (NCI-H23): 21.2 µM (inactive) | GI50 (OVCAR-5): 20.5 µM (inactive) | GI50 (CAKI-1): 15 µM (inactive) | GI50 (K562): 14.7 µM (inactive) | GI50 (SW-620): 20.9 µM (inactive) | GI50 (UO-31): 10 µM (inactive) | GI50 (Hs-578T): 80.4 µM (inactive) | GI50 (HOP-92): 17 µM (inactive) | GI50 (SK-OV-3): 27.1 µM (inactive) | GI50 (ACHN): 27.2 µM (inactive) | GI50 (HT-29): 16.5 µM (inactive) | GI50 (SNB-19): 36.6 µM (inactive) | GI50 (NCI/ADR-RES): 26.5 µM (inactive) | GI50 (M14): 14.5 µM (inactive) | GI50 (HCC 2998): 46.8 µM (inactive) | GI50 (HCT-15): 5.66 µM | GI50 (OVCAR-8): 30.5 µM (inactive) | GI50 (SF-295): 21.9 µM (inactive) | GI50 (EKVX): 19.5 µM (inactive) | GI50 (UACC-257): 37.2 µM (inactive) | GI50 (MDA-MB-231): 29.4 µM (inactive) | GI50 (OVCAR-4): 14.5 µM (inactive) | GI50 (PC-3): 17.1 µM (inactive) | GI50 (SK-MEL-2): 28.3 µM (inactive) | GI50 (RXF 393): 15.2 µM (inactive) | GI50 (A549): 23.4 µM (inactive) | GI50 (MOLT-4): 10.9 µM (inactive) | GI50 (SK-MEL-5): 6.32 µM (inactive) | GI50 (COLO 205): 23.9 µM (inactive) | GI50 (DU-145): 23.9 µM (inactive) | GI50 (U-251): 17.7 µM (inactive) | GI50 (NCI-H460): 14.8 µM (inactive) | GI50 (KM12): 22.6 µM (inactive) | GI50 (NCI-H226): 22.1 µM (inactive)
